In brackets after ≈: the same amount, converted by molar mass. Structures can show the parent of a compound that is named as a salt.
Columns and labels:
[1] = Solubility in simulated biological media (37° C., HPLC); assay type: physicochemical; details: for Solubility compared with the solubility of the free base: simulated biological media
Method: (§1) Procedure: About 10 mg of amorphous free base was weighed and placed in a 2 mL glass vial. Then, 1 mL of simulated biological media (simulated artificial gastric juice, simulated artificial intestinal juice-fasting, and simulated artificial intestinal juice-satiety), and a magnetic stirrer were added, and then the vial was sealed. The mixture was magnetically stirred at 37° C. and about 0.4 mL of the sample was taken at different time points. The mixture was filtered with a centrifuge tube (pore size of filter membrane: 0.45 μm), the filtrate was taken and the content of the compound of formula I therein was analyzed by HPLC.
as §1, with “crystal form I of” for “amorphous”, “vial,” for “vial. Then,”, “was” for “were”, “added,” for “added, and”
as §1, with “crystal form of the” for “amorphous”, “and” for “and then”
as §1, with “crystal form I of a phosphate salt” for “amorphous free base”, “(simulated is” for “(simulated”
as §1, with “crystal form III of the mesylate salt” for “amorphous free base”
as §1, with “crystal form III of the 1,5-naphthalenedisulfonate salt” for “amorphous free base”

[2] = Accelerated stability test (HPLC purity, crystal form); assay type: physicochemical; details: for Purity ratio: purity after test / initial purity
Method: The accelerated stability test of crystal form III of the mesylate salt was used for researching the physical and chemical stability of crystal form III of the mesylate salt. Specific procedure: After the sample was placed in an accelerated stability for a sufficient time under the conditions shown in the table below, the sample was taken out and dissolved in the mobile phase, and then its purity was determined by HPLC. Before the start of the accelerated stability test, the purity of the initial sample was determined by HPLC. The ratio of the purity of the sample after the accelerated stability test to the purity of the initial sample was used as a stability criterion. If the ratio was less than 95% purity, the sample was considered as unstable.

[3] = Bioavailability in dog after single administration by gavage; assay type: in vivo; details: 5 mg/kg
Method: It could be seen from FIG. 21 that the bioavailability of crystal form III of the mesylate salt was increased by 5 times in comparison to form I of the free base. Experimental conditions: the experimental animal was a dog, a dose of 5 mg/kg, single administration by gavage. Therefore, the salt-form compound has a significant improvement in comparison to the free base.

[4] = simulated artificial gastric juice
[5] = simulated artificial intestinal juice-fasting
[6] = simulated artificial intestinal juice-satiety
[7] = 40° C./75% relative humidity, 1 week

Compound | Solubility (1 hour) [1, 4] | Solubility (4 hours) [1, 4] | Solubility (22 hours) [1, 4] | Solubility (1 hour) [1, 5] | Solubility (4 hours) [1, 5] | Solubility (22 hours) [1, 5] | Solubility (1 hour) [1, 6] | Solubility (4 hours) [1, 6] | Solubility (22 hours) [1, 6] | Solubility compared with the solubility of the free base [1] | Crystal transformation after the accelerated stability test [2, 7] | Purity after the accelerated stability test ([2]; 40° C./75% relative humidity, 1 week, initial purity 98.2%) | Purity ratio [2, 7] | Physical and chemical stability ([2]; 80° C. 1 day and 40° C./75% relative humidity 1 week) | Crystal transformation after the accelerated stability test ([2]; 80° C., 1 day) | Purity after the accelerated stability test ([2]; 80° C., 1 day, initial purity 99.9%) | Purity ratio ([2]; 80° C., 1 day) | Increase of bioavailability in comparison to form I of the free base [3]
CN1C(=O)COc2c1cnc1ccc(Sc3nnc4c(F)cc(-c5cnn(C)c5)cn34)cc21 [Amorphous free base, 9-((8-fluoro-6-(1-methyl-1H-pyrazol-4-yl)-[1,2,4]triazolo[4,3-a]pyridin-3-yl)thio)-4-methyl-2H-[1,4]oxazino[3,2-c]quinolin-3(4H)-one] | 11 µg/mL (≈ 23.8 µM) | 9 µg/mL (≈ 19.5 µM) | 9 µg/mL (≈ 19.5 µM) | 2 µg/mL (≈ 4.33 µM) | 2 µg/mL (≈ 4.33 µM) | 2 µg/mL (≈ 4.33 µM) | 3 µg/mL (≈ 6.5 µM) | 2 µg/mL (≈ 4.33 µM) | 2 µg/mL (≈ 4.33 µM) | – | – | – | – | – | – | – | – | –
CN1C(=O)COc2c1cnc1ccc(Sc3nnc4c(F)cc(-c5cnn(C)c5)cn34)cc21 [Crystal form I of free base, 9-((8-fluoro-6-(1-methyl-1H-pyrazol-4-yl)-[1,2,4]triazolo[4,3-a]pyridin-3-yl)thio)-4-methyl-2H-[1,4]oxazino[3,2-c]quinolin-3(4H)-one] | 18 µg/mL (≈ 39 µM) | 19 µg/mL (≈ 41.2 µM) | 19 µg/mL (≈ 41.2 µM) | 1 µg/mL (≈ 2.17 µM) | 1 µg/mL (≈ 2.17 µM) | 2 µg/mL (≈ 4.33 µM) | 4 µg/mL (≈ 8.67 µM) | 4 µg/mL (≈ 8.67 µM) | 4 µg/mL (≈ 8.67 µM) | – | – | – | – | – | – | – | – | –
CN1C(=O)COc2c1cnc1ccc(Sc3nnc4c(F)cc(-c5cnn(C)c5)cn34)cc21 [Crystal form I of phosphate, 9-((8-fluoro-6-(1-methyl-1H-pyrazol-4-yl)-[1,2,4]triazolo[4,3-a]pyridin-3-yl)thio)-4-methyl-2H-[1,4]oxazino[3,2-c]quinolin-3(4H)-one] | 128 µg/mL | 135 µg/mL | 135 µg/mL | 8 µg/mL | 4 µg/mL | 3 µg/mL | 32 µg/mL | 33 µg/mL | 27 µg/mL | much greater | – | – | – | – | – | – | – | –
CN1C(=O)COc2c1cnc1ccc(Sc3nnc4c(F)cc(-c5cnn(C)c5)cn34)cc21 [Crystal form III of free base, 9-((8-fluoro-6-(1-methyl-1H-pyrazol-4-yl)-[1,2,4]triazolo[4,3-a]pyridin-3-yl)thio)-4-methyl-2H-[1,4]oxazino[3,2-c]quinolin-3(4H)-one] | 40 µg/mL (≈ 86.7 µM) | 43 µg/mL (≈ 93.2 µM) | 43 µg/mL (≈ 93.2 µM) | 4 µg/mL (≈ 8.67 µM) | 4 µg/mL (≈ 8.67 µM) | 4 µg/mL (≈ 8.67 µM) | 11 µg/mL (≈ 23.8 µM) | 11 µg/mL (≈ 23.8 µM) | 10 µg/mL (≈ 21.7 µM) | – | – | – | – | – | – | – | – | –
CN1C(=O)COc2c1cnc1ccc(Sc3nnc4c(F)cc(-c5cnn(C)c5)cn34)cc21 [Crystal form III of mesylate, 9-((8-fluoro-6-(1-methyl-1H-pyrazol-4-yl)-[1,2,4]triazolo[4,3-a]pyridin-3-yl)thio)-4-methyl-2H-[1,4]oxazino[3,2-c]quinolin-3(4H)-one] | 211 µg/mL | 200 µg/mL | 12.5 µg/mL | 5 µg/mL | 5 µg/mL | 5 µg/mL | 20 µg/mL | 14 µg/mL | 10 µg/mL | much greater | No | 98.8% | 100.6% | good physical and chemical stability | No | 99.7% | 99.8% | 5 times
CN1C(=O)COc2c1cnc1ccc(Sc3nnc4c(F)cc(-c5cnn(C)c5)cn34)cc21 [Crystal form III of the 1,5-naphthalenedisulfonate salt] [9-((8-fluoro-6-(1-methyl-1H-pyrazol-4-yl)-[1,2,4]triazolo[4,3-a]pyridin-3-yl)thio)-4-methyl-2H-[1,4]oxazino[3,2-c]quinolin-3(4H)-one] | 182 µg/mL | 27 µg/mL | 30 µg/mL | 12 µg/mL | 10 µg/mL | 5 µg/mL | 48 µg/mL | 33 µg/mL | 13 µg/mL | much greater | – | – | – | – | – | – | – | –

— patent US10208065B2, “Crystalline free bases of C-Met inhibitor or crystalline acid salts thereof, and preparation methods and uses thereof” (Jiangsu Hansoh Pharmaceutical Group Co., Ltd., priority 2014, dated 2019)
